Results on seven compounds are retold here after patent EP4467141A1, “PYRAZOLO-QUINOLINES AS SELECTIVE INHIBITORS OF GENOTOXIC STRESS-INDUCED IKK/NF- KB PATHWAYS FOR CANCER THERAPY” (Max-Delbrück-Centrum für Molekulare Medizin in der …, priority 2023, dated 2024).

The structures appear in SMILES notation. Where two headings read alike, the source gives them in different places.

The target in test [1] is T1, PIK3C2G (PI3K-C2 gamma) (Homo sapiens, UniProt O75747).
T1 construct: purchased Thermo Fisher Scientific
T1 sequence (O75747 1-1486): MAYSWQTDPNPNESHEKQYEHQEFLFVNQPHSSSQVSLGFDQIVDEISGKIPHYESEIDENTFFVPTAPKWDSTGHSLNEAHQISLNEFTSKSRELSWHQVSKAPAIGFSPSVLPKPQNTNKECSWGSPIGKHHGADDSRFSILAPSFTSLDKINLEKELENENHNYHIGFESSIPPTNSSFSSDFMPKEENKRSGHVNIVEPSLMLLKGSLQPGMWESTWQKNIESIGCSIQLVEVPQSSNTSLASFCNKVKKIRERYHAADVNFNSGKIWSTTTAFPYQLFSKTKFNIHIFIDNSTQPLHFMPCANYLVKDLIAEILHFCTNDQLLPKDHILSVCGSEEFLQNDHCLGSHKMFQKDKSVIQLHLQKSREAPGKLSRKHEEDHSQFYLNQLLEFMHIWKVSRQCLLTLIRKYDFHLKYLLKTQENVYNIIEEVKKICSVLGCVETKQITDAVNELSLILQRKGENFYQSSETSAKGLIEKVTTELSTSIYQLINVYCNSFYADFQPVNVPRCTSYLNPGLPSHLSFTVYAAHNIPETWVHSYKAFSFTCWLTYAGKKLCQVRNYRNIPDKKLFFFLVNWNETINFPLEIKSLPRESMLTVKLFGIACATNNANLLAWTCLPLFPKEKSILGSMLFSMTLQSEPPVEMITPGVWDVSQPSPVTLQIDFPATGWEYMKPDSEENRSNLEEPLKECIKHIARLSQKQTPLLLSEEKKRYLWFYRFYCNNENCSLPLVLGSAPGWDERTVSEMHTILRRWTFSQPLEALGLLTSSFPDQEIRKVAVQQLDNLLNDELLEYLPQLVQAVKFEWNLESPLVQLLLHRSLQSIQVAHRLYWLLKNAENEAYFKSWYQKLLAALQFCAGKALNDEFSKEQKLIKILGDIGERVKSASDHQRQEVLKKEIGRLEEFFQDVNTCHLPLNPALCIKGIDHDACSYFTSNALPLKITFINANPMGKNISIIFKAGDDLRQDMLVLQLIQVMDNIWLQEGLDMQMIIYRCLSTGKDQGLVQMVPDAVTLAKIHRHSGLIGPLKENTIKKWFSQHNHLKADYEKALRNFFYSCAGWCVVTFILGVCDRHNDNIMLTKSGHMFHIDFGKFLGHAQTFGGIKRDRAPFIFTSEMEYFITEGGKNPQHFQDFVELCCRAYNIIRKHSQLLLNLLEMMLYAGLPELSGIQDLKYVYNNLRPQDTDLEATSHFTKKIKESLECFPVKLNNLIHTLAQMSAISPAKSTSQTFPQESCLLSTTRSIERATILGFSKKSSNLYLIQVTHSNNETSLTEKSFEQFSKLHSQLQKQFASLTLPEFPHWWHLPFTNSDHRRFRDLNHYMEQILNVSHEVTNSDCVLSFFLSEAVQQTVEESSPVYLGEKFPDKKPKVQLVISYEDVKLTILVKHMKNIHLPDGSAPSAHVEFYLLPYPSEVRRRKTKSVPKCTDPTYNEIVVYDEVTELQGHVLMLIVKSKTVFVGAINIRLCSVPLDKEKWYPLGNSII
As to the kind of experiment: Kinase panel study. Format: biochemical. The following applies: for inhibition at 1 µM: 1000nM; for IC50: in vitro kinase panel, criterion of at most 2000 nM. The procedure, abridged:
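Outsourced panel screen. Format: ZLyte or Adapta, run per the manufacturer's procedures. Read-out: inhibition (%) at a single dose of 10 µM or 1 µM; IC50s also generated.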

Test [2] addresses T2, GSG2 (Haspin) (Homo sapiens, UniProt Q8TF76).
T2 construct: purchased Thermo Fisher Scientific
T2 sequence (Q8TF76 1-798): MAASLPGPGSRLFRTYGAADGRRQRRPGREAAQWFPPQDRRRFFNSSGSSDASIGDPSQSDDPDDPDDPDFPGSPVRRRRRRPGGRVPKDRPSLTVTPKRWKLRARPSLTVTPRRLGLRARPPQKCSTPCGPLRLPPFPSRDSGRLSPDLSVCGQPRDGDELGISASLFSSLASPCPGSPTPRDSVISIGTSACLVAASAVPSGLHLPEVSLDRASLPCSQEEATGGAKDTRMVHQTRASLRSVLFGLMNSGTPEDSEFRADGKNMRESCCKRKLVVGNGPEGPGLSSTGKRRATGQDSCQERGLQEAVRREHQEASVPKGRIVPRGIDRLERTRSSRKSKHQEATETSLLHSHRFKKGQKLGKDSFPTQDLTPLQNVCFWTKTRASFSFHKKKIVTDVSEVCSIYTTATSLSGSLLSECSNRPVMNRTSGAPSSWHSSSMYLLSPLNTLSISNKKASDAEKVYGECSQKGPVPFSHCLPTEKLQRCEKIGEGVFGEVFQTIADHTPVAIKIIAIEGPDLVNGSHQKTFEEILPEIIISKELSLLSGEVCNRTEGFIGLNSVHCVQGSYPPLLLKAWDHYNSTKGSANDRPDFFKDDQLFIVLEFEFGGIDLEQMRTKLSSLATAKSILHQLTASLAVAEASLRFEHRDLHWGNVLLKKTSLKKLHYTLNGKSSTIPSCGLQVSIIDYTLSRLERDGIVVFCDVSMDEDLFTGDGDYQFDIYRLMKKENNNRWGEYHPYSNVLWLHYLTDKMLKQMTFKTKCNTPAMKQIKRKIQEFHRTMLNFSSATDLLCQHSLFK
As to the kind of experiment: Kinase panel study. The conditions noted are these: for inhibition at 1 µM: 1000nM. Format: biochemical. An outline of the steps:
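Readout is percentage kinase inhibition. Testing used 1 µM or 10 µM compound in externally run ZLyte/Adapta in vitro assays, and IC50 values were derived within the same panel.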

[3] abbreviates: read-out: Percentage of inhibition.
[4] abbreviates: 10000nM, read-out: Percentage of inhibition.
Setting [5] is: PIK3C2G (PI3K-C2 gamma), compound at 10µM, read-out: % of Inhibition.
[6] abbreviates: GSG2 (Haspin), compound at 10µM, read-out: % of Inhibition.

As for `COc1ccc2c(c1OC)c(=O)n1c3ccc(O)cc3c3ccnc2c31` [MW01, 5-Hydroxy-10,11-dimethoxy-9H-benzo[c]indolo[3,2,1-ij][1,5]naphthyridin-9-one], the inhibition (usually the relative decrease from the control value, in per cent) at 1 µM in test [1] (setting [3]) worked out at 92%; in test [2] (setting [3]), 77%. For the same compound, the inhibition at 10 µM in test [1] (setting [4]) amounted to 94%; in test [2] (setting [4]) it was 83%. The concentration for half-maximal inhibition (IC50) (commonly the concentration needed to halve the response being measured) in test [1] was at most 2000 nM.

`COc1ccc2c(c1)c1ccnc3c4nc(OC)ccc4c(=O)n2c13` [MW01-E6, 5,15-dimethoxy-1,11,14-triazapentacyclo[10.7.1,0^2,7.0^8,^20.0^13,^18]icosa-2(7),3,5,8(20),9,11,13(18),14,16-nonaen-19-one]: the inhibition at 10 µM in test [1] (setting [5]) is 35%; in test [2] (setting [6]), 29%.

As to `O=c1c2cc(O)ccc2c2nccc3c4cc(O)ccc4n1c32` [MW01-E10, 5,16-dihydroxy-1,11-diazapentacyclo[10.7.1.0^2,^7.0^8,^20.0^13,^18]icosa-2(7),3,5,8(20),9,11,13(18),14,16-nonaen-19-one], the values for the inhibition at 10 µM in test [1] (setting [5]) and in test [2] (setting [6]) were 81% and 80%, respectively.

For the compound `COc1ccc2c(c1)c1ccnc3c4ccnc(OC)c4c(=O)n2c13` [MW01-E14, 5,17-dimethoxy-1,11,16-triazapentacyclo[10.7.1.0^2,^7.0^8,^20.0^13,^18]icosa-2(7),3,5,8(20),9,11,13(18),14,16-nonaen-19-one], the inhibition at 10 µM in test [1] (setting [5]) was 50%; in test [2] (setting [6]), 24%.

Take `O=c1c2cnccc2c2nccc3c4cc(O)ccc4n1c32` [MW01-E18, 5-hydroxy-1,11,16-triazapentacyclo[10.7.1.0^2,^7.0^8,^20.0^13,^18]icosa-2(7),3,5,8(20),9,11,13(18),14,16-nonaen-19-one]: the inhibition at 10 µM was 81% in test [1] (setting [5]) and 88% in test [2] (setting [6]).

For `COc1ccc2cc3c(N)nn(C(=O)c4cccc(N(C)C)c4)c3nc2c1` [MW05, (3-Amino-7-methoxypyrazolo[3,4-b]quinolin-1-yl)-[3-(dimethylamino)phenyl]methanone], the inhibition at 1 µM in test [1] (setting [3]) stood at 56%; in test [2] (setting [3]), 4%. The inhibition at 10 µM in test [1] (setting [4]) amounted to 87%; in test [2] (setting [4]), 20%. The same compound gave an IC50 in test [1] of at most 2000 nM.

`COc1ccc2nc3c(cc2c1)c(N)nn3C(=O)c1cccc(N(C)C)c1` [MW05-E2, 1-[3-(dimethylamino)benzoyl]-6-methoxy-1H-pyrazolo[3,4-b]quinolin-3-amine]: the inhibition at 10 µM in test [1] (setting [5]) amounted to 27%; in test [2] (setting [6]), 36%.
